Laboratory results reported in patent publication US12540143B2, “Methods and compositions for targeted protein degradation” (Ranok Therapeutics (Hangzhou) Co. Ltd., priority 2019, dated 2026).
pIC50: −log10 of the molar value.

Tested on: MV4-11 cells
Test: MV4-11 Cytotoxicity Assay
Type: cell-based, human
Conditions: Homo sapiens, MV4-11; 72 hr, CCK-8; read-out: MV4-11 cytotoxicity

Row | SMILES | pIC50
1 | Cc1sc2c(c1C)C(c1ccc(Cl)cc1)=N[C@@H](CC(=O)NCC(=O)NCCOc1ccc(-n3c(O)nnc3-c3cc(C(C)C)c(O)cc3O)cc1)c1nnc(C)n1-2 [Compound 54, (S)-2-(4-(4-chlorophenyl)-2,3,9-trimethyl-6H-thieno[3,2-f][1,2,4]triazolo[4,3-a][1,4]diazepin-6-yl)-N-(2-((2-(4-(3-(2,4-dihydroxy-5-isopropylphenyl)-5-hydroxy-4H-1,2,4-triazol-4-yl)phenoxy)ethyl)amino)-2-oxoethyl)acetamide] | 6.00 to 7.00
2 | Cc1sc2c(c1C)C(c1ccc(Cl)cc1)=N[C@@H](CC(=O)NCC(=O)NCCOCCOc1ccc(-n3c(O)nnc3-c3cc(C(C)C)c(O)cc3O)cc1)c1nnc(C)n1-2 [Compound 55, (S)-2-(4-(4-chlorophenyl)-2,3,9-trimethyl-6H-thieno[3,2-f][1,2,4]triazolo[4,3-a][1,4]diazepin-6-yl)-N-(2-((2-(2-(4-(3-(2,4-dihydroxy-5-isopropylphenyl)-5-hydroxy-4H-1,2,4-triazol-4-yl)phenoxy)ethoxy)ethyl)amino)-2-oxoethyl)acetamide] | 6.00 to 7.00
3 | CCc1cc(-c2nnc(O)n2-c2ccc(CNC(=O)C[C@@H]3N=C(c4ccc(Cl)cc4)c4c(sc(C)c4C)-n4c(C)nnc43)cc2)c(O)cc1O [Compound 56, 2-((6S)-4-(4-chlorophenyl)-2,3,9-trimethyl-6H-thieno[3,2-f][1,2,4]triazolo[4,3-a][1,4]diazepin-6-yl)-N-(4-(3-(5-ethyl-2,4-dihydroxyphenyl)-5-hydroxy-4H-1,2,4-triazol-4-yl)benzyl)acetamide] | 6.00 to 7.00
4 | Cc1sc2c(c1C)C(c1ccc(Cl)cc1)=N[C@@H](CC(=O)NCC(=O)NCc1ccc(-n3c(O)nnc3-c3cc(C(C)C)c(O)cc3O)cc1)c1nnc(C)n1-2 [Compound 57, 2-((6S)-4-(4-chlorophenyl)-2,3,9-trimethyl-6H-thieno[3,2-f][1,2,4]triazolo[4,3-a][1,4]diazepin-6-yl)-N-(2-((4-(3-(2,4-dihydroxy-5-isopropylphenyl)-5-hydroxy-4H-1,2,4-triazol-4-yl)benzyl)amino)-2-oxoethyl)acetamide] | 6.00 to 7.00
5 | Cc1sc2c(c1C)C(c1ccc(Cl)cc1)=N[C@@H](CC(=O)NCC1CN(C(=O)C3CCN(Cc4ccc(-n5c(O)nnc5-c5cc(C(C)C)c(O)cc5O)cc4)CC3)C1)c1nnc(C)n1-2 [Compound 59, 2-((6S)-4-(4-chlorophenyl)-2,3,9-trimethyl-6H-thieno[3,2-f][1,2,4]triazolo[4,3-a][1,4]diazepin-6-yl)-N-((1-(1-(4-(3-(2,4-dihydroxy-5-isopropylphenyl)-5-hydroxy-4H-1,2,4-triazol-4-yl)benzyl)piperidine-4-carbonyl)azetidin-3-yl)methyl)acetamide, trifluoroacetic acid] | > 7.00
6 | Cc1sc2c(c1C)C(c1ccc(Cl)cc1)=N[C@@H](CC(=O)NCC(=O)NCC1CN(C(=O)C3CCN(Cc4ccc(-n5c(O)nnc5-c5cc(C(C)C)c(O)cc5O)cc4)CC3)C1)c1nnc(C)n1-2 [Compound 60, 2-((6S)-4-(4-chlorophenyl)-2,3,9-trimethyl-6H-thieno[3,2-f][1,2,4]triazolo[4,3-a][1,4]diazepin-6-yl)-N-(2-(((1-(1-(4-(3-(2,4-dihydroxy-5-isopropylphenyl)-5-hydroxy-4H-1,2,4-triazol-4-yl)benzyl)piperidine-4-carbonyl)azetidin-3-yl)methyl)amino)-2-oxoethyl)acetamide, trifluoroacetic acid] | > 7.00
7 | Cc1sc2c(c1C)C(c1ccc(Cl)cc1)=N[C@@H](CCNCCOc1ccc(-n3c(O)nnc3-c3cc(C(C)C)c(O)cc3O)cc1)c1nnc(C)n1-2 [Compound 62, (S)-4-(4-(4-(2-((2-(4-(4-chlorophenyl)-2,3,9-trimethyl-6H-thieno[3,2-f][1,2,4]triazolo[4,3-a][1,4]diazepin-6-yl)ethyl)amino)ethoxy)phenyl)-5-hydroxy-4H-1,2,4-triazol-3-yl)-6-isopropylbenzene-1,3-diol, trifluoroacetic acid] | 6.00 to 7.00
8 | Cc1sc2c(c1C)C(c1ccc(Cl)cc1)=N[C@@H](CCNCCOCCOc1ccc(-n3c(O)nnc3-c3cc(C(C)C)c(O)cc3O)cc1)c1nnc(C)n1-2 [Compound 63, (S)-4-(4-(4-(2-(2-((2-(4-(4-chlorophenyl)-2,3,9-trimethyl-6H-thieno[3,2-f][1,2,4]triazolo[4,3-a][1,4]diazepin-6-yl)ethyl)amino)ethoxy)ethoxy)phenyl)-5-hydroxy-4H-1,2,4-triazol-3-yl)-6-isopropylbenzene-1,3-diol, trifluoroacetic acid] | 6.00 to 7.00
9 | Cc1sc2c(c1C)C(c1ccc(Cl)cc1)=N[C@@H](CCNCC1CCN(C(=O)C3CCN(Cc4ccc(-n5c(O)nnc5-c5cc(C(C)C)c(O)cc5O)cc4)CC3)CC1)c1nnc(C)n1-2 [Compound 64, (4-(((2-((6S)-4-(4-chlorophenyl)-2,3,9-trimethyl-6H-thieno[3,2-f][1,2,4]triazolo[4,3-a][1,4]diazepin-6-yl)ethyl)amino)methyl)piperidin-1-yl)(1-(4-(3-(2,4-dihydroxy-5-isopropylphenyl)-5-hydroxy-4H-1,2,4-triazol-4-yl)benzyl)piperidin-4-yl) methanone, trifluoroacetic acid] | 6.00 to 7.00
10 | Cc1sc2c(c1C)C(c1ccc(Cl)cc1)=N[C@@H](CCN(C)CCOc1ccc(-n3c(O)nnc3-c3cc(C(C)C)c(O)cc3O)cc1)c1nnc(C)n1-2 [Compound 65, (S)-4-(4-(4-(2-((2-(4-(4-chlorophenyl)-2,3,9-trimethyl-6H-thieno[3,2-f][1,2,4]triazolo[4,3-a][1,4]diazepin-6-yl)ethyl)(methyl)amino)ethoxy)phenyl)-5-hydroxy-4H-1,2,4-triazol-3-yl)-6-isopropylbenzene-1,3-diol] | 6.00 to 7.00
11 | Cc1sc2c(c1C)C(c1ccc(Cl)cc1)=N[C@@H](CCNCC1CCN(C(=O)C3CCN(Cc4ccc(-n5c(O)nnc5-c5cc(C(C)C)c(O)cc5O)cc4)CC3)C1)c1nnc(C)n1-2 (stereo partly drawn) [Compound 66, (3-(((2-((6S)-4-(4-chlorophenyl)-2,3,9-trimethyl-6H-thieno[3,2-f][1,2,4]triazolo[4,3-a][1,4]diazepin-6-yl)ethyl)amino)methyl)pyrrolidin-1-yl)(1-(4-(3-(2,4-dihydroxy-5-isopropylphenyl)-5-hydroxy-4H-1,2,4-triazol-4-yl)benzyl)piperidin-4-yl) methanone, trifluoroacetic acid] | 6.00 to 7.00
12 | CCc1cc(-c2nnc(O)n2-c2ccc(CN3CCC(C(=O)N4CCC(CNCC[C@@H]5N=C(c6ccc(Cl)cc6)c6c(sc(C)c6C)-n6c(C)nnc65)C4)CC3)cc2)c(O)cc1O (stereo partly drawn) [Compound 67, (3-(((2-((6S)-4-(4-chlorophenyl)-2,3,9-trimethyl-6H-thieno[3,2-f][1,2,4]triazolo[4,3-a][1,4]diazepin-6-yl)ethyl)amino)methyl)pyrrolidin-1-yl)(1-(4-(3-(5-ethyl-2,4-dihydroxyphenyl)-5-hydroxy-4H-1,2,4-triazol-4-yl)benzyl)piperidin-4-yl) methanone, trifluoroacetic acid] | 6.00 to 7.00
13 | CCc1cc(-c2nnc(O)n2-c2ccc(CN3CCC(C(=O)N4CCC(CNCC[C@@H]5N=C(c6ccc(Cl)cc6)c6c(sc(C)c6C)-n6c(C)nnc65)CC4)CC3)cc2)c(O)cc1O [Compound 68, (4-(((2-((6S)-4-(4-chlorophenyl)-2,3,9-trimethyl-6H-thieno[3,2-f][1,2,4]triazolo[4,3-a][1,4]diazepin-6-yl)ethyl)amino)methyl)piperidin-1-yl)(1-(4-(3-(5-ethyl-2,4-dihydroxyphenyl)-5-hydroxy-4H-1,2,4-triazol-4-yl)benzyl)piperidin-4-yl) methanone, trifluoroacetic acid] | 6.00 to 7.00
14 | Cc1sc2c(c1C)C(c1ccc(Cl)cc1)=N[C@@H](CCN(C)CCOCCOc1ccc(-n3c(O)nnc3-c3cc(C(C)C)c(O)cc3O)cc1)c1nnc(C)n1-2 [Compound 71, (S)-4-(4-(4-(2-(2-((2-(4-(4-chlorophenyl)-2,3,9-trimethyl-6H-thieno[3,2-f][1,2,4]triazolo[4,3-a][1,4]diazepin-6-yl)ethyl)(methyl)amino)ethoxy)ethoxy)phenyl)-5-hydroxy-4H-1,2,4-triazol-3-yl)-6-isopropylbenzene-1,3-diol, trifluoroacetic acid] | 6.00 to 7.00
15 | Cc1sc2c(c1C)C(c1ccc(Cl)cc1)=N[C@@H](CC(=O)Nc1ccc(NC(=O)C3CCN(Cc4ccc(-n5c(O)nnc5-c5cc(C(C)C)c(O)cc5O)cc4)CC3)cc1)c1nnc(C)n1-2 [Compound 72, N-(4-(2-((6S)-4-(4-chlorophenyl)-2,3,9-trimethyl-6H-thieno[3,2-f][1,2,4]triazolo[4,3-a][1,4]diazepin-6-yl)acetamido)phenyl)-1-(4-(3-(2,4-dihydroxy-5-isopropylphenyl)-5-hydroxy-4H-1,2,4-triazol-4-yl)benzyl)piperidine-4-carboxamide, trifluoroacetic acid] | > 7.00
16 | CCc1cc(-c2nnc(O)n2-c2ccc(CN3CCC(C(=O)N4CCC(CNC(=O)C[C@@H]5N=C(c6ccc(Cl)cc6)c6c(sc(C)c6C)-n6c(C)nnc65)C4)CC3)cc2)c(O)cc1O (stereo partly drawn) [Compound 77, 2-((6S)-4-(4-chlorophenyl)-2,3,9-trimethyl-6H-thieno[3,2-f][1,2,4]triazolo[4,3-a][1,4]diazepin-6-yl)-N-((1-(1-(4-(3-(5-ethyl-2,4-dihydroxyphenyl)-5-hydroxy-4H-1,2,4-triazol-4-yl)benzyl)piperidine-4-carbonyl)pyrrolidin-3-yl)methyl)acetamide, trifluoroacetic acid] | 6.00 to 7.00
17 | Cc1sc2c(c1C)C(c1ccc(Cl)cc1)=N[C@@H](CC(=O)N1CCN(c3ccc(-n4c(O)nnc4-c4cc(C(C)C)c(O)cc4O)cc3)CC1)c1nnc(C)n1-2 [Compound 79, (S)-2-(4-(4-chlorophenyl)-2,3,9-trimethyl-6H-thieno[3,2-f][1,2,4]triazolo[4,3-a][1,4]diazepin-6-yl)-1-(4-(4-(3-(2,4-dihydroxy-5-isopropylphenyl)-5-hydroxy-4H-1,2,4-triazol-4-yl)phenyl)piperazin-1-yl)ethan-1-one] | > 7.00
